Values quoted from earlier work as cited in patent publication US20220370398A1, “METHOD TO DESTABALIZE CYSTEINE EXPOSED INFECTIOUS INFORMATION VECTORS” (priority 2021, published 2022).

Columns and labels:
[1] = in 40% aqueous ethanol solution
[2] = test system: bacterial infection; details: in vitro, as a vapor

C=CCS[S+]([O-])CC=C (centres unmarked) [2PSP, 2-Propene-1-sulfinothioic acid S-2-propenyl ester]
solubility [1]: ~20%
vapor antimicrobial effect [2]: inhibits bacterial infection
